Each structure is given as a SMILES string. Several values for one entry are separate records, joined by “and”; a condition that tells them apart may be missing. Equal entries are not always repeated.

Format in all cases: in vivo
Assay [1] relates to fleas. In words: Flea repellent test, blunt-end filter paper article in flat surface tube (inverted centrifuge tube). The conditions noted are these: 20 fleas, counted after 30 min, tests #1-3. The text has this:
(§1) Two types of filter paper articles were constructed. Specifically, article with two blunt ends (herein after “blunt-end article”) and article with one tapered end and one blunt end (herein after “tapered-end article”), were constructed in accordance with the procedures depicted in FIG. 2, except minor modifications for the blunt-end article, in which each of the two filter paper stripes were not cut diagonally from one end, and therefore both ends remained blunt after the two filter paper stripes were adhered. Repellents test were then conducted using the respective articles so as to develop an improved system and/or method for screening a candidate insect pest-repellent.

In assay [2] the test system is fleas. Kind of assay: Flea repellent test, tapered-end filter paper article in concave surface (round-ended glass) tube.
Description: as §1

In assay [3] the test system is fleas. Kind of assay: Screening of essential oils as flea-repellents, tapered-end article in round-ended tube, repellency (PR %). The conditions noted are these: concentration of about 1% (wt %). The text has this:
In another aspect, a method of screening a candidate insect pest-repellant using the article 100 of FIG. 1 is provided. Referring again to FIG. 2, during the operation of screening an effective insect pest-repellent, a few drops of a candidate insect pest-repellent solution and a control solution (e.g., a buffer or water) are respectively applied onto the two paper strips (i.e., the first and second paper strips (110, 120) respectively having the first and second tapered ends (111, 121)), and allowed them to spread evenly throughout the respective papers. The two paper strips (110, 120) are then let standing for a few minutes to dry. […] In one example, the entire set up (i.e., including the article 100, the tube 140 and the fleas) is let stand for at least 30 min, before the number of insect pests on respective paper strips (110, 120) are counted. Repellency (PR %) of the candidate insect pest-repellent is determined by the following equation, […]
The article was let stand for about 30 min until it was dried. […] After 30 min, the numbers of fleas on respective sides of the filtered paper article was then counted. Repellency (PR %) of each candidate essential oils was calculated in accordance with the following equation, […]

[4] abbreviates: tapered end article + concave surface tube, 20 fleas, counted after 30 min, tests #1-3.

For the molecule `CCO` [75% Ethanol, ethanol], in assay [1], the “number of fleas in the Bottom of the tube” value is 4 and 2 and 3; the “number of fleas on Control (untreated) side of the article” value is 10 and 8 and 6; the “number of fleas on Treated side of the article” value was 6 and 10 and 11. Besides, the “repellent activity towards fleas” value in assay [2] (in words, from Table 1, compared with the two commercial flea repellents) is “no repellent activity”. Moreover, in assay [2] (setting [4]), the “number of fleas on Control (untreated) side of the article” value was 9 and 11; the “number of fleas on Treated side of the article” value was 9 and 11 and 8.

Consider `O=CC=Cc1ccccc1` [cinnamaldehyde], for which the repellency result in assay [3] is reported as “at least 97%”.

Values taken from patent US9032821B2, “Articles for screening insect pest-repellents and uses thereof” (National Taiwan University, priority 2012, dated 2015).
